The record followed here is US9573953B2, “Heteroaromatic compounds as PI3 kinase modulators and methods of use” (CALITOR SCIENCES, LLC, priority 2013, dated 2017).

One data set has as its target T1, mTOR (h) (Homo sapiens, UniProt P42345).
T1 construct: purchased Millipore UK Ltd (assays run there as a service)
The data set is described as follows: mTOR (h) kinase assay. Format: biochemical. Here is the method:
mTOR (h) is incubated with 50 mM HEPES pH 7.5, 1 mM EDTA, 0.01% TWEEN®20, 2 mg/mL substrate, 3 mM Manganese Chloride and [γ-^33P-ATP] (specific activity approx. 500 cpm/pmol, concentration as required). The reaction is initiated by the addition of the MnATP mix. After incubation for 40 minutes at room temperature, the reaction is stopped by the addition of 3% phosphoric acid solution. Aliquote of the reaction (10 μL) is then spotted onto a P30 filtermat and washed three times for 5 minutes in 75 mM phosphoric acid and once in methanol prior to drying and scintillation counting.
(§1) The kinase assays described herein were performed at Millipore UK Ltd, Dundee Technology Park, Dundee DD2 1SW, UK.

Another data set deals with U87MG glioblastoma cells. As to the kind of experiment: Tumor xenograft model (U87MG), tumor growth inhibition. It is filed as in vivo, mice. Conditions: oral gavage. Here is the method: The efficacy of compounds disclosed herein was evaluated in a standard murine model of tumorigenesis. Human tumor cells (U87MG glioblastoma cells from ATCC) were expended in culture, harvested, and injected subcutaneously onto the rear flank of 6-7 week old female athymic nude mice (BALB/cA nu/nu, Hunan SLAC Laboratory Animal, Co.) (n=6-10 for vehicle group and for each dosing group). When tumors reached a volume of 100-250 mm^3, animals were randomly divided into vehicle control (for example, 5% DMSO+70% CAPTISOL® (30%), 7% HCl (pH1), 18% CAPTISOL® (30%); or 7% DMSO, 7% HCl (pH1), 70% CAPTISOL® (30%), 16% CAPTISOL® (30%), or the like) and compound groups. Subsequent administration of compound by oral gavage begins anywhere from day 0 to day 15 post tumor cell challenge and generally continues with once a day for the duration of the experiment.
Progression of tumor growth is assessed by tumor volumes and recorded as a function of time. The long (L) and short (W) axes of the subcutaneous tumors were measured with calipers twice weekly, and the tumor volume (TV) calculated as (L×W^2)/2). TGI was calculated from the difference between the median tumor volumes of vehicle-treated and drug-treated mice, expressed as a percentage of the median tumor volume of the vehicle-treated control group, by the following relation:
Initial statistical analysis is done by repeated measures analysis of variance (RMANOVA), followed by Scheffe post hoc testing for multiple comparisons. Vehicle alone (5% DMSO+70% CAPTISOL® (30%), 7% HCl (pH1), 18% CAPTISOL® (30%); or 7% DMSO, 7% HCl (pH1), 70% CAPTISOL® (30%), 16% CAPTISOL® (30%), or the like) is the negative control.

The nature of data set [1]: Pharmacokinetic profiles in dogs. Format: in vivo. The note with it: Dog; for F: iv dose 1 mg/kg, oral dose generally 10 mg/kg; for clearance / AUC(0-t) / half-life / Vd: iv dosing, 1 mg/kg; for AUC(0-t) / half-life / Vd: plasma; for Vd: read-out: Vss. Here is the method:
(§2) The compounds disclosed herein are assessed in pharmacokinetic studies in mice, rats, dogs or monkeys. The compounds are administered as a water solution, 2% HPMC+1% TWEEN®80 in water solution, 5% DMSO+5% solutol in saline, 4% MC suspension or capsule. For the intravenous administration, the animals are generally given at 1 or 2 mg/kg dose. For the oral (p.o.) dosing, mice and rats are generally given 5 or 10 mg/kg dose, and dogs and monkeys are generally given 10 mg/kg dose. The blood samples (0.3 mL) are drawn at 0.25, 0.5, 1.0, 2.0, 3.0, 4.0, 6.0, 8.0, 12 and 24 h time points or 0.083, 0.25, 0.5, 1.0, 2.0, 4.0, 6.0, 8.0 and 24 h time points and centrifuged at 3,000 or 4000 rpm for 2 to 10 min. The plasma solutions are collected and stored at −20° C. or −70° C. until analyzed by LC/MS/MS as described above.

Data set [2] can be described thus: Pharmacokinetic profiles in monkeys. Format: in vivo. Conditions: Monkey; for F: iv dose 1 mg/kg, oral dose generally 10 mg/kg; for Cl/F / AUC(0-t) / half-life / Vd: iv dosing, 1 mg/kg; for AUC(0-t) / half-life / Vd: plasma; for Vd: read-out: Vss. Here is the method:
as §2

Data set [3] in a line: Pharmacokinetic profiles in mice. Format: in vivo. Conditions: Mouse; for F: iv dose 1 mg/kg, oral dose generally 5 or 10 mg/kg; for clearance / AUC(0-t) / half-life / Vd: iv dosing, 1 mg/kg; for AUC(0-t) / half-life / Vd: plasma; for Vd: read-out: Vss. Here is the method: as §2
In the next data set the target is T2, PI3K p110α/p85α (h) (Homo sapiens, UniProt P42336).
T2 construct: purchased Millipore UK Ltd (assays run there as a service)
T2 sequence (P42336 whole entry): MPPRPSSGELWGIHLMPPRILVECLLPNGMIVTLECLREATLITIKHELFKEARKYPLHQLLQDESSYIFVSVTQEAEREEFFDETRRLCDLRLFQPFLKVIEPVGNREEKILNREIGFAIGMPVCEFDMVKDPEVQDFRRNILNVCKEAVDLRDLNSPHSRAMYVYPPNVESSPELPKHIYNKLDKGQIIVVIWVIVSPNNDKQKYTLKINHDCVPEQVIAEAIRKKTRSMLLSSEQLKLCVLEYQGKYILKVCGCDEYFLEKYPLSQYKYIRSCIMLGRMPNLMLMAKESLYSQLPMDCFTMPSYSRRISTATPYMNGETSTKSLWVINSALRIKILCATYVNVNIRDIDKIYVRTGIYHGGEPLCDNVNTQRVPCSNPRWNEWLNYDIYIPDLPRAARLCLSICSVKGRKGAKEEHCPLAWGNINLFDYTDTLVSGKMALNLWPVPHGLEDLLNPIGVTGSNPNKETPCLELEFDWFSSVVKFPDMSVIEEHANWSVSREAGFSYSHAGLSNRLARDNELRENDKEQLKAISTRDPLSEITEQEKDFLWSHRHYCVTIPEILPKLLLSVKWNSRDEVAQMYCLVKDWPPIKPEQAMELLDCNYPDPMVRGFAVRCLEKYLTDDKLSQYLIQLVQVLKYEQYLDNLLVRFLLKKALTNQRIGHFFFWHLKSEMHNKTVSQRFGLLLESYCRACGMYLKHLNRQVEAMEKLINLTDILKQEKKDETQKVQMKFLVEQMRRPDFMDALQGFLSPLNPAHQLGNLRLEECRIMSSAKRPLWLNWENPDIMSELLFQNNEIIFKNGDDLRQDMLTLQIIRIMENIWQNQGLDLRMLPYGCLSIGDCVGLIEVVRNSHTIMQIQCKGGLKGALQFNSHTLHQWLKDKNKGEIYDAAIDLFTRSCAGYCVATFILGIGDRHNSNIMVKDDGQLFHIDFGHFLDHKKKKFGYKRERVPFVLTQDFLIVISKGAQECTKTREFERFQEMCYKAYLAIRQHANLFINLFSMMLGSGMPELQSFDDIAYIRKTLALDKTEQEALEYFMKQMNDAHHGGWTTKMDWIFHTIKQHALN
T2 sequence (P27986 whole entry partner): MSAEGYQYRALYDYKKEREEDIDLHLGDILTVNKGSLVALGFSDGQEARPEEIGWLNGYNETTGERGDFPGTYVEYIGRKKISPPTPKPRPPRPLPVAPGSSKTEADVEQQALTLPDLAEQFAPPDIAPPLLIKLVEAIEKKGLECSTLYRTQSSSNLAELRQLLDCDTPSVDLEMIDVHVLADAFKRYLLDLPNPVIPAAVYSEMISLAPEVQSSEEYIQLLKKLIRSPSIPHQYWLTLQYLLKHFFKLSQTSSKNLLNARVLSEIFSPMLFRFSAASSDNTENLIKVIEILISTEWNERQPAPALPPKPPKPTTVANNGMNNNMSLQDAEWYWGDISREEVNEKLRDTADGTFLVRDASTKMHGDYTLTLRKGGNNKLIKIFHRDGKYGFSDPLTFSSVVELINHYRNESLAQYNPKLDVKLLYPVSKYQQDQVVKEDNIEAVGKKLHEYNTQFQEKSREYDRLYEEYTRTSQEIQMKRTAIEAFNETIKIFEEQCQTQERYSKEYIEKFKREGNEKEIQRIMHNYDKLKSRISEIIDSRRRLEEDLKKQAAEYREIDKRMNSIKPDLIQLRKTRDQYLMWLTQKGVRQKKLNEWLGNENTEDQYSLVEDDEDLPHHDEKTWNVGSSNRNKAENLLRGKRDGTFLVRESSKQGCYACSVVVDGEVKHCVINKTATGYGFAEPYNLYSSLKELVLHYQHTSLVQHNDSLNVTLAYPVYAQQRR
The data set is described as follows: PI3K p110α/p85α (h) non-radioactive (HTRF) assay. It is filed as biochemical. Here is the method:
PI3K p110α/p85α (h) [Non-Radioactive Assay]
PI3K p110α/p85α (h) is incubated in assay buffer containing 10 μM phosphatidylinositol 4,5-bisphosphate and MgATP (concentration as required). The reaction is initiated by the addition of the ATP solution. After incubation for 30 minutes at room temperature, the reaction is stopped by the addition of stop solution containing EDTA and biotinylated phosphatidylinositol-3,4,5-trisphosphate. Finally, detection buffer is added, which contains europium-labelled anti-GST monoclonal antibody, GST-tagged GRP1 PH domain and streptavidin allophycocyanin. The plate is then read in time-resolved fluorescence mode and the homogenous time-resolved fluorescence (HTRF) signal is determined according to the formula HTRF=10000×(Em665 nm/Em620 nm).
as §1
(In general: Time-resolved FRET reads energy transfer from a long-lived donor to a nearby acceptor.)

Molecules are shown by their SMILES.

Usually IC50 stands for the concentration that gives 50% inhibition. Regarding `COc1ncc(-c2ccn3ncc(C#CCO)c3n2)cc1NS(=O)(=O)c1ccc(F)cc1F` [Ex. 1, 2,4-difluoro-N-(5-(3-(3-hydroxyprop-1-yn-1-yl)pyrazolo[1,5-a]pyrimidin-5-yl)-2-methoxypyridin-3-yl)benzenesulfonamide], the IC50 against mTOR (h) was found to be 9 nM. Moreover, the “TGI % U87MG” value was 26% in the data set on U87MG glioblastoma cells (1 mg/kg, 12 days); 37% with U87MG glioblastoma cells (3 mg/kg, 12 days); 68% in the data set with U87MG glioblastoma cells (10 mg/kg, 12 days).
Take `COc1ncc(-c2ccn3ncc(C#N)c3n2)cc1NS(=O)(=O)c1ccc(F)cc1F` [Ex. 2, N-(5-(3-cyanopyrazolo[1,5-a]pyrimidin-5-yl)-2-methoxypyridin-3-yl)-2,4-difluorobenzenesulfonamide]: the IC50 on mTOR (h) worked out at 4 nM. The “TGI % U87MG” value in the data set on U87MG glioblastoma cells (1 mg/kg, 12 days) amounted to 59%; with U87MG glioblastoma cells (3 mg/kg, 12 days), 76%.
One may read the clearance as the rate of elimination divided by the concentration. The low end stands for a low capacity for elimination, the high end for a high capacity for elimination. As usually defined, the AUC(0-t) is the area under the concentration-time curve up to a stated or last time point. Low values mean less exposure, high ones more exposure. By half-life is commonly meant the time needed for the level to fall by half in the phase considered. A lower half-life goes with fast loss. Consider `COc1ncc(-c2ccn3ncc(C#N)c3c2)cc1NS(=O)(=O)c1ccc(F)cc1F` [Ex. 3, N-(5-(3-cyanopyrazolo[1,5-a]pyridin-5-yl)-2-methoxypyridin-3-yl)-2,4-difluorobenzenesulfonamide], for which, on mTOR (h), the IC50 was found to be 4 nM. Besides, in data set [1], the F came to 108.5%, the clearance turned out to be 4.5 mL/min/kg, the AUC(0-t) stood at 3670 ng·h/mL and the half-life was 0.67 h. Besides, the Vd in data set [1] stood at 0.23 L/kg. Further, in data set [2], the F was found to be 59.8%, the Cl/F amounted to 2.67 mL/min/kg, the AUC(0-t) worked out at 5980 ng·h/mL and the half-life was 9.7 h. The Vd in data set [2] stood at 0.92 L/kg. Moreover, in data set [3], the F turned out to be 79.3%, the clearance was 0.33 mL/min/kg, the AUC(0-t) came to 57100 ng·h/mL and the half-life was 5.45 h. Further, in data set [3], the Vd stood at 0.13 L/kg. Also, in the data set on U87MG glioblastoma cells (0.3 mg/kg, 13 days), the “TGI % U87MG” value was 26%. For the same molecule, the “TGI % U87MG” value in the data set on U87MG glioblastoma cells (1 mg/kg, 13 days) was determined as 70%. For the same molecule, the “TGI % U87MG” value in the data set on U87MG glioblastoma cells (3 mg/kg, 13 days) was found to be 95%.
Turning to `COc1ncc(-c2ccn3ncc(C#CCO)c3c2)cc1NS(=O)(=O)c1ccc(F)cc1F` [Ex. 4, 2,4-difluoro-N-(5-(3-(3-hydroxyprop-1-yn-1-yl)pyrazolo[1,5-a]pyridin-5-yl)-2-methoxypyridin-3-yl)benzenesulfonamide], the IC50 against mTOR (h) came to 4 nM. In data set [1], this molecule showed an F of 108.5%, a clearance of 1.83 mL/min/kg, an AUC(0-t) of 9070 ng·h/mL and a half-life of 6.13 h. The Vd in data set [1] is 0.19 L/kg. In data set [2], this molecule had an F of 24.0%, a Cl/F of 3 mL/min/kg, an AUC(0-t) of 5740 ng·h/mL and a half-life of 4.64 h. The Vd in data set [2] stood at 0.42 L/kg. Besides, the IC50 at PI3K p110α/p85α (h) came to 1 nM. Moreover, in data set [3], the F was determined as 70.0%, the clearance came out at 2.83 mL/min/kg, the AUC(0-t) worked out at 5810 ng·h/mL and the half-life is 1.11 h. Moreover, the Vd in data set [3] was 0.18 L/kg. Moreover, the “TGI % U87MG” value in the data set with U87MG glioblastoma cells (1 mg/kg, 13 days) is given as 32%. Besides, in the data set on U87MG glioblastoma cells (3 mg/kg, 13 days), the “TGI % U87MG” value is reported as 53%. The “TGI % U87MG” value in the data set with U87MG glioblastoma cells (10 mg/kg, 13 days) is 89%.
